Reference: PubChem BioAssay (NCI)
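GI50: concentration for 50% inhibition of growth. TGI: concentration producing complete growth inhibition.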

How the values were obtained:
Test in all cases: NCI tumour cell line growth inhibition, 384-well format
PC-3 prostate = system: PC-3 prostate
KM12 colon = system: KM12 colon
HCT-15 colon = system: HCT-15 colon
SF-295 CNS = system: SF-295 CNS
SK-MEL-5 melanoma = system: SK-MEL-5 melanoma
A549 NSCLC = system: A549 NSCLC
MALME-3M melanoma = system: MALME-3M melanoma
T-47D breast = system: T-47D breast
NCI-H23 lung = system: NCI-H23 lung
RXF 393 renal = system: RXF 393 renal
SK-OV-3 ovarian = system: SK-OV-3 ovarian
MCF7 breast = system: MCF7 breast
SF-268 CNS = system: SF-268 CNS
MDA-MB-231 breast = system: MDA-MB-231 breast
SN12C renal = system: SN12C renal
UO-31 renal = system: UO-31 renal
HT29 colon = system: HT29 colon
COLO 205 colon = system: COLO 205 colon
HL-60(TB) leukemia = system: HL-60(TB) leukemia
SK-MEL-28 melanoma = system: SK-MEL-28 melanoma
K-562 leukemia = system: K-562 leukemia
HOP-62 NSCLC = system: HOP-62 NSCLC
U251 glioblastoma = system: U251 glioblastoma
UACC-62 melanoma = system: UACC-62 melanoma
BT-549 breast = system: BT-549 breast
DU-145 prostate = system: DU-145 prostate
NCI-H460 NSCLC = system: NCI-H460 NSCLC
NCI-H522 lung = system: NCI-H522 lung
CCRF-CEM leukemia = system: CCRF-CEM leukemia
IGROV1 ovarian = system: IGROV1 ovarian
SW-620 colon = system: SW-620 colon
NCI/ADR-RES ovarian = system: NCI/ADR-RES ovarian
ACHN renal = system: ACHN renal
HCC-2998 colon = system: HCC-2998 colon
M14 melanoma = system: M14 melanoma
SNB-19 CNS = system: SNB-19 CNS
A498 renal = system: A498 renal
RPMI-8226 leukemia = system: RPMI-8226 leukemia
TK-10 renal = system: TK-10 renal
NCI-H226 lung = system: NCI-H226 lung
NCI-H322M lung = system: NCI-H322M lung
HCT-116 colon = system: HCT-116 colon
LOX IMVI melanoma = system: LOX IMVI melanoma
MDA-MB-435 melanoma = system: MDA-MB-435 melanoma
SNB-75 CNS = system: SNB-75 CNS
OVCAR-5 ovarian = system: OVCAR-5 ovarian
786-0 renal = system: 786-0 renal
SF-539 CNS = system: SF-539 CNS
OVCAR-3 ovarian = system: OVCAR-3 ovarian
HOP-92 NSCLC = system: HOP-92 NSCLC
MDA-MB-468 breast = system: MDA-MB-468 breast
EKVX NSCLC = system: EKVX NSCLC
HS 578T breast = system: HS 578T breast
OVCAR-4 ovarian = system: OVCAR-4 ovarian
UACC-257 melanoma = system: UACC-257 melanoma
OVCAR-8 ovarian = system: OVCAR-8 ovarian
MOLT-4 leukemia = system: MOLT-4 leukemia
CAKI-1 renal = system: CAKI-1 renal

C[C@@H](NC(=O)c1ncnc(N)c1Cl)c1ncc(C(=O)Nc2cc(C(F)(F)F)c(Cl)cn2)s1
GI50 (PC-3 prostate): 20.4 µM | TGI (PC-3 prostate): 35 µM | GI50 (KM12 colon): 13.1 µM | TGI (KM12 colon): 31.3 µM | GI50 (HCT-15 colon): 11.2 µM | TGI (HCT-15 colon): 25.6 µM | GI50 (SF-295 CNS): 17.7 µM | TGI (SF-295 CNS): 32.8 µM | GI50 (SK-MEL-5 melanoma): 1.35 µM | TGI (SK-MEL-5 melanoma): 15.2 µM | GI50 (A549 NSCLC): 10.3 µM | TGI (A549 NSCLC): 27.8 µM | GI50 (MALME-3M melanoma): 0.0475 µM | TGI (MALME-3M melanoma): 0.289 µM | GI50 (T-47D breast): 10.2 µM | TGI (T-47D breast): 22.7 µM | GI50 (NCI-H23 lung): 1.88 µM | TGI (NCI-H23 lung): 8.75 µM | GI50 (RXF 393 renal): 18.7 µM | TGI (RXF 393 renal): 40 µM | GI50 (SK-OV-3 ovarian): 20.5 µM | TGI (SK-OV-3 ovarian): 42.6 µM | GI50 (MCF7 breast): 14.5 µM | TGI (MCF7 breast): 28.7 µM | GI50 (SF-268 CNS): 12.3 µM | TGI (SF-268 CNS): 24.9 µM | GI50 (MDA-MB-231 breast): 2.11 µM | TGI (MDA-MB-231 breast): 20.3 µM | GI50 (SN12C renal): 15.3 µM | TGI (SN12C renal): 40.6 µM | GI50 (UO-31 renal): 11.5 µM | TGI (UO-31 renal): 32.5 µM | GI50 (HT29 colon): 0.555 µM | TGI (HT29 colon): 15.4 µM | GI50 (COLO 205 colon): 0.441 µM | TGI (COLO 205 colon): 12.2 µM | GI50 (HL-60(TB) leukemia): 0.717 µM | TGI (HL-60(TB) leukemia): 10.8 µM | GI50 (SK-MEL-28 melanoma): 0.419 µM | TGI (SK-MEL-28 melanoma): 2.67 µM | GI50 (K-562 leukemia): 0.281 µM | TGI (K-562 leukemia): 1.2 µM | GI50 (HOP-62 NSCLC): 12 µM | TGI (HOP-62 NSCLC): 24.8 µM | GI50 (U251 glioblastoma): 18 µM | TGI (U251 glioblastoma): 39.1 µM | GI50 (UACC-62 melanoma): 0.154 µM | TGI (UACC-62 melanoma): 1.41 µM | GI50 (BT-549 breast): 16.2 µM | TGI (BT-549 breast): 30.8 µM | GI50 (DU-145 prostate): 18 µM | TGI (DU-145 prostate): 35.2 µM | GI50 (NCI-H460 NSCLC): 9.03 µM | TGI (NCI-H460 NSCLC): 21.7 µM | GI50 (NCI-H522 lung): 13.7 µM | TGI (NCI-H522 lung): 26.6 µM | GI50 (CCRF-CEM leukemia): 12.8 µM | TGI (CCRF-CEM leukemia): 25.5 µM | GI50 (IGROV1 ovarian): 5.42 µM | TGI (IGROV1 ovarian): 20.8 µM | GI50 (SW-620 colon): 10.8 µM | TGI (SW-620 colon): 26.6 µM | GI50 (NCI/ADR-RES ovarian): 16.9 µM | TGI (NCI/ADR-RES ovarian): 32 µM | GI50 (ACHN renal): 13.7 µM | TGI (ACHN renal): 37.8 µM | GI50 (HCC-2998 colon): 4.74 µM | TGI (HCC-2998 colon): 18.5 µM | GI50 (M14 melanoma): 0.157 µM | TGI (M14 melanoma): 1.16 µM | GI50 (SNB-19 CNS): 29.4 µM | TGI (SNB-19 CNS): 91.4 µM | GI50 (A498 renal): 16.1 µM | TGI (A498 renal): 39.7 µM | GI50 (RPMI-8226 leukemia): 13.9 µM | TGI (RPMI-8226 leukemia): 27.1 µM | GI50 (TK-10 renal): 18.8 µM | TGI (TK-10 renal): 36.4 µM | GI50 (NCI-H226 lung): 15.8 µM | TGI (NCI-H226 lung): 40.4 µM | GI50 (NCI-H322M lung): 13 µM | TGI (NCI-H322M lung): 28.1 µM | GI50 (HCT-116 colon): 2.24 µM | TGI (HCT-116 colon): 13.6 µM | GI50 (LOX IMVI melanoma): 1.42 µM | TGI (LOX IMVI melanoma): 13.7 µM | GI50 (MDA-MB-435 melanoma): 1.37 µM | TGI (MDA-MB-435 melanoma): 15.9 µM | GI50 (SNB-75 CNS): 23.7 µM | TGI (SNB-75 CNS): 48.1 µM | GI50 (OVCAR-5 ovarian): 5.67 µM | TGI (OVCAR-5 ovarian): 29.6 µM | GI50 ([…]-0 renal): 16.8 µM | TGI (786-0 renal): 32.9 µM | GI50 (SF-539 CNS): 17.4 µM | TGI (SF-539 CNS): 35.9 µM | GI50 (OVCAR-3 ovarian): 16.2 µM | TGI (OVCAR-3 ovarian): 34.1 µM | GI50 (HOP-92 NSCLC): 4.23 µM | TGI (HOP-92 NSCLC): 14.9 µM | GI50 (MDA-MB-468 breast): 22 µM | TGI (MDA-MB-468 breast): 39 µM | GI50 (EKVX NSCLC): 14.8 µM | TGI (EKVX NSCLC): 29.1 µM | GI50 (HS 578T breast): 15 µM | TGI (HS 578T breast): 28.4 µM | GI50 (OVCAR-4 ovarian): 20.6 µM | TGI (OVCAR-4 ovarian): 38 µM | GI50 (UACC-257 melanoma): 0.406 µM | TGI (UACC-257 melanoma): 2.48 µM | GI50 (OVCAR-8 ovarian): 14.4 µM | TGI (OVCAR-8 ovarian): 27.7 µM | GI50 (MOLT-4 leukemia): 11.1 µM | TGI (MOLT-4 leukemia): 23.2 µM | GI50 (CAKI-1 renal): 11.6 µM | TGI (CAKI-1 renal): 26.5 µM
